Experimental data as given in patent US11072605B2, “Crystalline brexpiprazole” (Hexal Aktiengesellschaft, priority 2017, dated 2021).

Assay: Particle size distribution by laser diffraction (Malvern Mastersizer 3000)
Type: physicochemical
Conditions: aqueous suspension, after ultrasonification
Procedure: For the purpose of this invention, particle size distribution (PSD) is determined as the percent volume at each particle size and measured by a laser diffraction method in the context of a circulating aqueous suspension.
A Malvern Mastersizer 3000 laser diffraction analyzer equipped with a Hydro EV measurement cell was used. About 50 mg of sample were filled into a 15 ml glass test tube. The sample was wetted with two drops of Tween 80 and vortexed. Then the thoroughly wetted sample was dispersed in about 7 mL of UHQ-water by vortexing until the particles were dispersed. The suspension was treated for 7 minutes in an ultrasonification bath at RT (Elma S50H). The well dispersed suspension was then measured in water by adding a sample from the center of the test tube containing the well dispersed suspension to a water-filled dispersion unit prefilled with 70 mL of water. The sample in the 70 mL dispersion unit was kept under stirring at 2000 rpm. More sample from the test tube was added, until a targeted obscuration range of 10-25 percent was achieved. The Malvern Mastersizer was operated using the following parameters:
Particle size distribution was measured with a Malvern Mastersizer 3000 laser diffraction analyzer equipped with a Hydro EV measurement cell. About 50 mg of sample were given into a test tube. The sample was wetted with two drops of Tween 80 and dispersed in about 7 ml of water on a Vortexer. The suspension was treated for 7 minutes in a ultrasonification bath (Elma S50H). The well dispersed suspension was afterwards measured in water at a targeted obscuration range of 10-25 percent while circulating the aqueous suspension and stirring the suspension reservoir at 2000 rpm after a waiting period of three minutes. A fraunhofer optical model was utilized to deconvolute the sample scattering patterns to yield the resultant particle size distributions. Analysis model: General purpose/normal sensitivity. Measuring/background time: about 10 sec

| SMILES | d(4,3) volume mean diameter | d(10) (volume distribution) | d(90) (volume distribution) | d(50) (volume distribution) |
| --- | --- | --- | --- | --- |
| O=c1ccc2ccc(OCCCCN3CCN(c4cccc5sccc45)CC3)cc2[nH]1 [(i)] | D(4.3): 19 μm | D(10): 1.5 μm | D(90): 42 μm |  |
| O=c1ccc2ccc(OCCCCN3CCN(c4cccc5sccc45)CC3)cc2[nH]1 [(ii)] | D(4.3): 30 μm | D(10): 1.3 μm | D(90); 79 μm |  |
| O=c1ccc2ccc(OCCCCN3CCN(c4cccc5sccc45)CC3)cc2[nH]1 [Compound I, 7-[4-[4-(1-Benzothiophen-4-yl)piperazin-1-yl]butoxy]quinolin-2(1H)-one, reference compound] |  | 0.8 μm | 10.8 μm | 3 μm |
